The record followed here is patent US20030186954A1, “Estriol to treat and prevent cardiovascular disease” (priority 2002, published 2003).

SMILES strings stand for the structures. Read-outs that look alike come from different tables or passages of the source.

Series [1] in a line: Steroid levels in plasma and urine of estriol cream treated monkeys. As to conditions: urine collected just prior to cardiac catheterization after 4 weeks daily 0.3% estriol topical cream; n = 5.
The test system of series [2] is coronary arteries of ovariectomized female rhesus monkeys (serotonin + U46619 induced vasospasm). As to the kind of experiment: Drug-induced (serotonin + U46619) coronary vasospasm in ovariectomized rhesus monkeys, angiography. Format: in vivo, rhesus monkeys (Macaca mulatta). As to conditions: for Monkeys suffering a vasospasm during the study: estriol cream treated ovariectomized monkeys, 12 step intracoronary serotonin+U46619 injection protocol. How it is done:
The monkeys were entered into the study no less than 3 months after ovariectomy.
Angiography at the Dotter Institute, after overnight fasting, began with preanesthesia with ketamine (10 mg/kg body weight intramuscular), intubation with an endotracheal tube and a light surgical plane of anesthesia with isoflurane (induced at 1.5% to 3% maintained at 0.75% to 1.25%), vaporized with 33% nitrous oxide and 67% oxygen, or with 100% oxygen. Bilateral femoral intraarterial 3F catheters allowed for coronary catheterization and continuous recording of systemic arterial blood pressure and heart rate, which were maintained close to the initial anesthetic value for each monkey. Intravenous heparin (1,000 U) was injected, and up to 120 ml of pyruvated Ringer's solution and 0 to 50 ml of dextran solution were used (as needed) to maintain diastolic blood pressure ≧60 mm Hg. A heating pad assisted in maintenance of a body temperature decrease ≦2° C. of preanesthesia body temperature (monitored by rectal thermometer). An electrocardiogram (ECG) recorded on a Gould eight-channel recorder, cutaneous arterial oxygen saturation, respiratory rate and end-tidal CO2 were also monitored.
Entire experiments were recorded on videotape (with episodic fluoroscopic imaging and continuous voice annotation) to permit computerized quantitative coronary angiography. […]
Placement of the 3F catheter (except as noted later) was adjusted to provide sufficient filling with radio-opaque contrast medium, limited reflux and isolation of a branch of the coronary arterial tree. […] Fluoroscopic images were recorded on film using an OEC model 9800 digital x-ray system with fluoroscopic C-arm, digitally recorded, and evaluated in subsequent analysis. All procedures including a brief 0.2 ml injection of Hexabrix for optimal quantitative angiography were recorded on videotape for subsequent computer analysis. […]
After 4 weeks of daily treatment with 0.2 mg/kg of the estriol topical cream, the monkeys were studied by coronary catheterization, and reactivity was assessed by injection of serotonin (100 μM) and U46619 (1 μM).

Series [3] in a line: Levels of estriol in saliva of human volunteers treated with skin cream. Format: in vivo. Conditions: topical; for concentration at 24 h: human volunteers, 24 hours after second application, read-out: Salivary concentration of estriol (group average). How it is done: Four human volunteers applied one of three estriol skin cream formulations in a base of polyethylene glycol, sorbitol, and water. The formulations were as described above in Example 3, except that one formulation contained 0.1% estriol, a second formulation contained 0.5% estriol, and a third contained 1% estriol. Each volunteer applied […] of one of the formulations daily for 2 days for a total applied dosage of 4 mg, 20 mg, and 40 mg of estriol, respectively.
Concentrations of estriol in saliva was measured 24 hours after the second application of the estriol cream formulations. The group that applied the 0.1% estriol averaged a salivary concentration of about 300 pg/ml. The 0.5% group averaged about 1500 pg/ml. The 1%group averaged about 4000 pg/ml.
In addition, salivary concentration of estriol was measured ten minutes following the application of 20 mg of estriol in skin cream. A concentration of 10 ng/ml was found, indicating rapid absorption.

Consider `C[C@]12CC[C@@H]3c4ccc(O)cc4CC[C@H]3[C@@H]1C[C@@H](O)[C@@H]2O` [Estriol], for which, in series [1], the “E3 absorbed, urine (total)” value is recorded as “***2412 +/− 316 (n = 5) ng/ml”. The “Monkeys suffering a vasospasm during the study” value in series [2] is recorded as “None of the monkeys”; in series [2] (listed as E3), “none of the E3 treated monkeys showed a vasospasm”. In addition, the “Vasospasm criteria met (incidence)” value in series [2] (ovariectomized monkeys, 4 weeks daily 0.3% estriol topical cream (0.2 mg/kg), intracoronary serotonin 100 μM + U46619 1 μM, criteria <33% of control diameter for >5 minutes) is given as 0/6. The concentration at 24 h in series [3] (0.1% estriol skin cream, 4 ml daily for 2 days (4 mg)) was approximately 0.3 ng/mL; in series [3] (0.5% estriol skin cream, 4 ml daily for 2 days (20 mg)) it was approximately 1.5 ng/mL; in series [3] (1% estriol skin cream, 4 ml daily for 2 days (40 mg)), approximately 4 ng/mL. In addition, the concentration at 10 min in series [3] (human, ten minutes following application of 20 mg of estriol in skin cream, read-out: Salivary concentration of estriol) was 10 ng/mL.
